Test results reported in patent publication US7691883B2, “Cinnamoyl compound and use of the same” (Sumitomo Chemical Company, Limited, priority 2003, dated 2010).

Tests used:
[1] = Ability of a test compound to regulate transcription of a Type I collagen gene using the expression level of a reporter gene (COL-Luc luciferase) as an index; assay type: cell-based; details: final concentration 1 μM; normal human fetal skin fibroblast transfected with COL-Luc; TGF-β, 40 hours; read-out: inhibition percentage (inhibitory effect on the ability of TGF-β to promote transcription of a Type I collagen gene)
Procedure: 1×10^8 cells of a normal human fetal skin fibroblast (Clontech, catalogue No. CC-2509) were cultured at 37° C. overnight under 5% CO2 atmosphere. After the cultured cells were washed with a sodium phosphate buffer (hereinafter, referred to as PBS) twice, 3 ml of PBS was added thereto and the cells were scraped away the wall of a vessel using a cell scraper (Nalgen, catalogue No. 179693). The scraped cells were collected by centrifugation (1,500 rpm, 4° C., 15 min), and these were suspended in 20 ml of PBS and centrifuged again. To the resulting precipitates were added 11 ml of Solution 2 and 4.8 μl of pronase of DNA Extraction Kit (Stratagene, catalogue No. 200600). After shaken at 60° C. for 1 hour, the resulting mixture was allowed to stand in ice for 10 minutes. Then, 4 ml of Solution 3 of the kit was added to the mixture. After mixed, the mixture was allowed to stand in ice for 5 minutes and then centrifuged (3,000 rpm, 4° C., 15 min) to recover a supernatant. To the recovered supernatant was added 2 μl of RNase per 1 ml of the supernatant and the mixture was allowed to stand at 37° C. for 15 minutes. To the mixture was added 2-fold volume of ethanol. After mixed, a white thread-like substance (genomic DNA) appeared and the substance was recovered. The recovered genomic DNA washed with 70% ethanol and then air-dried. The air-dried genomic DNA was dissolved in 500 μl of 10 mM Tris-HCl, 1 mM EDTA (pH 8.0) (hereinafter, referred to as TE).
The resulting genomic DNA solution (the amount equivalent to 1 μg of genomic DNA), each 1 μl (10 pmol/μl) of an oligonucleotide consisting of the nucleotide sequence represented by SEQ ID No:1 and an oligonucleotide consisting of the nucleotide sequence represented by SEQ ID No:2, 29 μL of distilled water, 5 μl of the buffer attached to TaKaRa LA Taq (TAKARA SHUZO, catalogue No. RR002A), 5 μL of a Mg^2+ solution, 5 μL of a dNTP mixture and 0.5 μl of TaKaRa LA Taq (TAKARA SHUZO, catalogue No. RR002A) were mixed. After the resulting mixed solution was incubated at 94° C. for 5 minutes, the mixed solution was subjected to 30 cycles, in which one cycle consists of incubation at 94° C. for 1 minute, at 60° C. for 1 minute and then at 72° C. for 1 minute. The mixed solution was electrophoresed on a 2% agarose gel to recover about 0.5 kb of a DNA. The recovered DNA was treated with phenol/chloroform and then precipitated with ethanol to recover the DNA. The resulting DNA was dissolved in ultrapure water. To this solution were added 2.5 μl of NheI and 2.5 μl of HindIII, and then incubated at 37° C. for 3 hours. Then, the solution was electrophoresed on a 2% agarose gel to recover about 3.5 kb of a DNA. The recovered DNA was precipitated with ethanol to recover again the DNA (hereinafter, referred to as the collagen promoter DNA).
On the other hand, the vector pGL3 (Promega, catalogue No. E1751) having the nucleotide sequence encoding firefly luciferase was digested with NheI and HindIII, and then subjected to agarose gel electrophoresis as described above to recover about 5 kb of a DNA. The recovered DNA was precipitated with ethanol to recover the DNA again. To the recovered DNA were added 44 μl of distilled water, 5 μl of Buffer attached to Alkaline Phosphatase (TAKARA SHUZO, catalogue No. 2120A) and 1 μl of Alkaline Phosphatase (TAKARA SHUZO, catalogue No. 2120A). The mixed solution was incubated at 65° C. for 30 minutes. Then, the mixed solution was treated with phenol/chloroform twice, and precipitated with ethanol to recover the DNA (hereinafter referred to as the Luc vector DNA). Then, after about 20 ng of the collagen promoter DNA and about 20 ng of the Luc vector DNA were mixed, the same amount of a DNA Ligation kit Ver2 enzyme solution was added and this was incubated overnight at 16° C. To the mixed solution was added Escherichia coli 5Hdα (TOYOBO, catalogue No. DNA-903), this was allowed to stand in ice for 30 minutes, and then incubated at 42° C. for 45 seconds. […]

[2] = tested on: mRNA of Type I collagen gene in renal glomerulus; test: Improvement of chronic renal failure: mRNA of Type I collagen gene in renal glomerulus of anti-Thy-1 antibody rats; assay type: in vivo, rat; set-up: key to mRNA of collagen gene: Type I collagen amount / GAPDH amount; details: for ability to improve chronic renal failure: anti-Thy-1 antibody rats, 15 mg/kg/day orally for 7 days; for mRNA of collagen gene: male Wistar rats given anti-Thy-1 antibody (IgG) i.v., compound orally 15 mg/kg/day for 7 days, Type I collagen amount/GAPDH amount, renal cortex, control group 5.6, normal group 1.7
Procedure: IgG was purified from an ascites-lyophilized powder (CEDARLANE, lot No. 05122) containing an anti-rat CD90 (Thy1.1) monoclonal antibody using MAbTrap kit (Amersham Biosciences, catalogue No. 17-1128-01).
6 ml of a binding buffer was added to 3 ml of ascites to sufficiently recover it, and this was passed through a 0.22 μm filter. The resulting solution was applied to a pre-bufferized column, and the column was then washed with 10 ml of a binding buffer. Thereafter, the column was eluted with 5 ml of an elution buffer. From washing, each 1 ml was fractionated, and the protein concentration of each fraction was measured using bovine serum albumin as a standard. A single peak was confirmed from an elution pattern, and an IgG fraction was dialyzed against a physiological saline overnight at 4° C. The protein concentration of the resulting anti-Thy-1 antibody (IgG) was calculated.
The present compounds represented by the compound numbers (1a), (4a), (9a), (14a), (21a), (33a), (19b) or (21d) (hereinafter, referred to as the present compound (1a), (4a), (9a), (14a), (21a), (33a), (19b) or the present compound (21d), respectively) and a corn oil which is a medium were weighed. These were mixed using a mortar and a pestle to prepare a […]. Using four 7-week old male Wistar rats [Nippon Charles River] per group, 60 μg/ml of the anti-Thy-1 antibody (IgG) or a physiological saline was intravenously injected via a tail vein at 5 ml/kg. Immediately after administration of the anti-Thy-1 antibody (IgG) or a physiological saline, the present compound or a corn oil was repeatedly orally administered for 7 days at 5 ml/kg. A dose of the present compound was 15 mg/kg/day.
On the next day of final administration, a rat reared as described in the above (2) was slaughtered by collection of whole blood, and kidneys were isolated. A whole RNA was separated from the cortex of the isolated kidney using RNeasy Mini Kit (QIAGEN, catalogue No. 74106). To 5 μl (50 ng) of the separated whole RNA were added 1 μl of 20 μM oligo dT and 4 μl of RNase-free distilled water. After the mixture was incubated at 65° C. for 5 minutes, it was immediately ice-cooled. To 10 μl of the solution were added 4 μl of 5× buffer, 2.4 μl of MgCl2, 1 μl of 10 mM dNTP, 1 μl of RNasin, 1 μl of Improm II and 0.6 μl of RNase-free distilled water (all available from Promega), and a reverse transcription reaction was performed under the condition of at 25° C. for 5 minutes, at 42° C. for 1 hour, and at 70° C. for 15 minutes.
Into 5 μl of the reverse transcription reaction solution were mixed each 2 μl of each 1.25 pmol/μl of primers represented by SEQ ID NOS: 3 and 4, 1.25 μl of a probe (FAM-ctcgccttca tgcgcctgct agc-TAMRA) for detecting DNA of a Type I collagen gene represented by SEQ ID No:5, each 0.25 μl of Rodent GAPDH primers, 0.25 μl of a Rodent GAPDH probe, 12.5 μl of TaqMan Universal PCR Master Mix (all available from Applied Biosystem) and 1.5 μl of sterilized water in a well of Optical 96-Well Reaction Plate (Applied Biosystem, catalogue No. N801-0560). As a standard, in place of 5 μl of the reverse transcription reaction solution, each 5 μl of 500, 250, 125, 62.5, 31.25, 15.625 ng/μl rat renal cortex cDNA which had been prepared in advance was used. Thereafter, using Gene Amp 7900 (Applied Biosystem), PCR was performed under the condition of at 50° C. for 5 minutes, and 40 cycles in which one cycle is at 95° C. for 15 seconds and at 60° C. for 1 minute. For quantization, a standard straight line was made, the Type I collagen and GAPDH amounts of each sample were calculated, and the transcription amount was calculated according to the following equation: Type I collagen transcription amount=Type I collagen amount/GAPDH amount
For statistical treatment of the resulting result, F-test of a variance ratio was performed between two groups of the anti-Thy-1 antibody and corn oil-administered groups and other each group. […]

| Compound | inhibition at 1 µM [1] | ability to improve chronic renal failure [2] | mRNA of collagen gene [2] |
| --- | --- | --- | --- |
| Cc1cc(O)c(C(=O)C=Cc2cccc(C=CC#N)c2)c(=O)o1 [(1a), 4-hydroxy-3-[3-[3-(2-cyanoethenyl)phenyl]-1-oxo-2-propenyl]-6-methyl-2H-pyran-2-one] | ≥ 70% | have the ability to improve chronic renal failure | 1.9 |
| C=CCOc1cccc(C=CC(=O)c2c(O)cc(C)oc2=O)c1 [(4a), 4-hydroxy-3-[3-(3-allyloxyphenyl)-1-oxo-2-propenyl]-6-methyl-2H-pyran-2-one] | ≥ 70% | have the ability to improve chronic renal failure | 3.2 |
| C#CCOc1ccc(C=CC(=O)c2c(O)cc(C)oc2=O)cc1 [(9a), 4-hydroxy-3-[3-(4-propargyloxyphenyl)-1-oxo-2-propenyl]-6-methyl-2H-pyran-2-one] |  | have the ability to improve chronic renal failure | 3.4 |
| Cc1cc(O)c(C(=O)C=Cc2cccc(OCC#N)c2)c(=O)o1 [(14a), 4-hydroxy-3-[3-[3-(cyanomethoxy)phenyl]-1-oxo-2-propenyl]-6-methyl-2H-pyran-2-one] | ≥ 70% | have the ability to improve chronic renal failure | 2.2 |
| COC(=O)CNC(=O)c1cccc(C=CC(=O)c2c(N3CCOCC3)cc(C)oc2=O)c1 [(19b), 4-morpholino-3-[3-[3-[[(methoxycarbonylmethyl)amino]carbonyl]phenyl]-1-oxo-2-propenyl]-6-methyl-2H-pyran-2-one] | ≥ 70% | have the ability to improve chronic renal failure | 2.9 |
| COCC(=O)Nc1cccc(C=CC(=O)c2c(O)cc(C)oc2=O)c1 [(21a), 4-hydroxy-3-[3-[3-(methoxyacetylamino)phenyl]-1-oxo-2-propenyl]-6-methyl-2H-pyran-2-one] | ≥ 70% | have the ability to improve chronic renal failure | 1.7 |
| COCC(=O)Nc1cccc(C=CC(=O)c2c(O)c3ccccc3oc2=O)c1 [(21d), 4-hydroxy-3-[3-[3-(methoxyacetylamino)phenyl]-1-oxo-2-propenyl]-2H-1-benzopyran-2-one] | ≥ 70% | have the ability to improve chronic renal failure | 2.2 |
| COC(=O)CNC(=O)c1cccc(C=CC(=O)c2c(O)cc(C)oc2=O)c1 [(33a), 4-hydroxy-3-[3-[3-[[(methoxycarbonylmethyl)amino]carbonyl]phenyl]-1-oxo-2-propenyl]-6-methyl-2H-pyran-2-one] | ≥ 70% | have the ability to improve chronic renal failure | 3.3 |
